Data reported in patent US9340590B2 (priority 2011, dated 2016).
Where two headings read alike, the source gives them in different places. Positions of bridges follow the written chain, without caps; N, C: chain ends. Residues, ends and D or L forms follow the SMILES beside them.

Target: hNav1.7 (Homo sapiens, UniProt Q15858)
Test: cell-based
Assay type: cell-based
Conditions: read-out: IWQ Use Nav1.7

hNav1.7, sequence (Q15858 whole entry, looked up): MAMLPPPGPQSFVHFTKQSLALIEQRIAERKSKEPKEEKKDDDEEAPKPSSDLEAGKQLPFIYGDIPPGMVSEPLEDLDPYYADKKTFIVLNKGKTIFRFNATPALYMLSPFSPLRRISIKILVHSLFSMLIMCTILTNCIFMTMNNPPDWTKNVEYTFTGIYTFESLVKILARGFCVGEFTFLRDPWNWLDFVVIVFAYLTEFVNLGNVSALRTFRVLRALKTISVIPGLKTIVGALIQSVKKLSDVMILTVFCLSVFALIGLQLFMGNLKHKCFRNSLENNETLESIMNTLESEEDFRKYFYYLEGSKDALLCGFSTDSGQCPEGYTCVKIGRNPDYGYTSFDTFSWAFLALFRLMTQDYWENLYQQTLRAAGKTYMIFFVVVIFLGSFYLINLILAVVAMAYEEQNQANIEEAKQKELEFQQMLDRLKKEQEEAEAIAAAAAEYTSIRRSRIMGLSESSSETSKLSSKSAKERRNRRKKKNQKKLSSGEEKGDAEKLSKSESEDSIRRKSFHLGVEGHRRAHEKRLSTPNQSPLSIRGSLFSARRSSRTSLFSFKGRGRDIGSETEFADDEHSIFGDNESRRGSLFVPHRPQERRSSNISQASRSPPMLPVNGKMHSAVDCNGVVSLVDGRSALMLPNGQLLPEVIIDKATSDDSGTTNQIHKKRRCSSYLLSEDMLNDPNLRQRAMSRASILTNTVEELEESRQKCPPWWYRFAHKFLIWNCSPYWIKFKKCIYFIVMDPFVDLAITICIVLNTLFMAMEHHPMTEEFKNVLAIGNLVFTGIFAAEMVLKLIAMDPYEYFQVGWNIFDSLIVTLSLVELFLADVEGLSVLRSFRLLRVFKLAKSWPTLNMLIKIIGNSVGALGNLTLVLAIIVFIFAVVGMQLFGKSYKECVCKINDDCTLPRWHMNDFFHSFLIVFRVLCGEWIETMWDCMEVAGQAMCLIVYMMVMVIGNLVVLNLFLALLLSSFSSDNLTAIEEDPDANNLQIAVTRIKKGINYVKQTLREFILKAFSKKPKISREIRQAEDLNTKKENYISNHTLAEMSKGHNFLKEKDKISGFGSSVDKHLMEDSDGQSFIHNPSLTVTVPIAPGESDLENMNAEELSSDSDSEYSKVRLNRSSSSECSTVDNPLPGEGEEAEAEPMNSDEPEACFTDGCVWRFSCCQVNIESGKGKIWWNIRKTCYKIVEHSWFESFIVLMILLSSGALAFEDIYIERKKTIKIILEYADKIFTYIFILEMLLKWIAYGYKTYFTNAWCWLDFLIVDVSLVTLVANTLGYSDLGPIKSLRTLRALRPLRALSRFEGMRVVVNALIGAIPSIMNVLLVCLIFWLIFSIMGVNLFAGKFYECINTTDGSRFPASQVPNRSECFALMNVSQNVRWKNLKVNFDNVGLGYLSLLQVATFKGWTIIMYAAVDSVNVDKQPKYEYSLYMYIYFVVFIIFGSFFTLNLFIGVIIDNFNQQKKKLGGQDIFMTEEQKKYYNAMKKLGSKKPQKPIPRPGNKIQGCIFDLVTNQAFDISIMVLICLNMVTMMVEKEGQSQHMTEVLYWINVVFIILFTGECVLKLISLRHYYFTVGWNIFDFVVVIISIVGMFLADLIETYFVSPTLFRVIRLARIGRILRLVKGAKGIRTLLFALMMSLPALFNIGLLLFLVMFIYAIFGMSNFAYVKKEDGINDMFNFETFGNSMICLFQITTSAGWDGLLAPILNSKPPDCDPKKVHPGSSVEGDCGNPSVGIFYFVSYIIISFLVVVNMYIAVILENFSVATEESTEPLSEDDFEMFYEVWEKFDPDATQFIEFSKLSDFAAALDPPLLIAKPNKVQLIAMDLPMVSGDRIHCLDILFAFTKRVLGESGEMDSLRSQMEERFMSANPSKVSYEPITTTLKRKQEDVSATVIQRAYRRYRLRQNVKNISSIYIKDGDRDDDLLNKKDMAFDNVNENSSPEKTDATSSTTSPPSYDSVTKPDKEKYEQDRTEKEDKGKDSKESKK

SMILES	IC50	further results
CC[C@H](C)[C@@H]1NC(=O)[C@@H]2CSSC[C@@H]3NC(=O)[C@H](C(C)C)NC(=O)[C@H](CC(C)C)NC(=O)[C@H](CC(N)=O)NC(=O)[C@@H]4CCCN4C(=O)[C@H](CCCNC(=N)N)NC(=O)[C@H](CSSC[C@H](NC(=O)[C@@H](N)CC(=O)O)C(=O)N[C@@H](CC(C)C)C(=O)NCC(=O)N[C@@H](Cc4ccccc4)C(=O)N[C@@H](CCSC)C(=O)N[C@@H](CCCNC(=N)N)C(=O)N[C@@H](CCCCN)C(=O)N2)NC(=O)[C@H](CSSC[C@@H](C(=O)N[C@@H](CCCCN)C(=O)N[C@@H](Cc2ccc(O)cc2)C(=O)N[C@H](C(=O)N[C@@H](Cc2ccccc2)C(N)=O)C(C)C)NC(=O)[C@H](Cc2c[nH]c4ccccc24)NC(=O)[C@H](CCC(=O)O)NC(=O)[C@H](Cc2c[nH]cn2)NC(=O)[C@H]([C@@H](C)O)NC(=O)[C@H](CCCNC(=N)N)NC(=O)[C@H](CO)NC3=O)NC(=O)[C@H](CCCCN)NC(=O)[C@H](CC(=O)O)NC(=O)[C@H](CC(N)=O)NC(=O)[C@H](CC(=O)O)NC(=O)[C@@H]2CCCN2C1=O [SEQ ID NO: 153, [Glu28]GpTx-1(1-34)] (H-DCLGFMRKCIPDNDKCCRPNLVCSRTHEWCKYVF-NH2; disulfide 2-17, 9-23, 16-30)	–	IC50 (Table 23, IonWorks Quattro, use, […]): 340 nM
CC[C@H](C)[C@@H]1NC(=O)[C@@H]2CSSC[C@@H]3NC(=O)[C@H](C(C)C)NC(=O)[C@H](CC(C)C)NC(=O)[C@H](CC(N)=O)NC(=O)[C@@H]4CCCN4C(=O)[C@H](CCCNC(=N)N)NC(=O)[C@H](CSSC[C@H](NC(=O)[C@@H](N)CC(=O)O)C(=O)N[C@@H](CCCNC(=N)N)C(=O)NCC(=O)N[C@@H](Cc4ccccc4)C(=O)N[C@@H](CCSC)C(=O)N[C@@H](CCCNC(=N)N)C(=O)N[C@@H](CCCCN)C(=O)N2)NC(=O)[C@H](CSSC[C@@H](C(=O)N[C@@H](CCCCN)C(=O)N[C@@H](Cc2ccc(O)cc2)C(=O)N[C@H](C(=O)N[C@@H](Cc2ccccc2)C(N)=O)C(C)C)NC(=O)[C@H](Cc2c[nH]c4ccccc24)NC(=O)[C@H](CCCCN)NC(=O)[C@H](Cc2c[nH]cn2)NC(=O)[C@H]([C@@H](C)O)NC(=O)[C@H](CCCNC(=N)N)NC(=O)[C@H](CO)NC3=O)NC(=O)[C@H](CCCCN)NC(=O)[C@H](CC(=O)O)NC(=O)[C@H](CC(N)=O)NC(=O)[C@H](CC(=O)O)NC(=O)[C@@H]2CCCN2C1=O [SEQ ID NO: 155] (H-DCRGFMRKCIPDNDKCCRPNLVCSRTHKWCKYVF-NH2; disulfide 2-17, 9-23, 16-30)	30 nM	–
CC[C@H](C)[C@@H]1NC(=O)[C@@H]2CSSC[C@@H]3NC(=O)[C@H](C(C)C)NC(=O)[C@H](CC(C)C)NC(=O)[C@H](CC(N)=O)NC(=O)[C@@H]4CCCN4C(=O)[C@H](CCCNC(=N)N)NC(=O)[C@H](CSSC[C@H](NC(=O)[C@@H](N)CC(=O)O)C(=O)N[C@@H](CC(C)C)C(=O)NCC(=O)N[C@@H](CCCNC(=N)N)C(=O)N[C@@H](CCSC)C(=O)N[C@@H](CCCNC(=N)N)C(=O)N[C@@H](CCCCN)C(=O)N2)NC(=O)[C@H](CSSC[C@@H](C(=O)N[C@@H](CCCCN)C(=O)N[C@@H](Cc2ccc(O)cc2)C(=O)N[C@H](C(=O)N[C@@H](Cc2ccccc2)C(N)=O)C(C)C)NC(=O)[C@H](Cc2c[nH]c4ccccc24)NC(=O)[C@H](CCCCN)NC(=O)[C@H](Cc2c[nH]cn2)NC(=O)[C@H]([C@@H](C)O)NC(=O)[C@H](CCCNC(=N)N)NC(=O)[C@H](CO)NC3=O)NC(=O)[C@H](CCCCN)NC(=O)[C@H](CC(=O)O)NC(=O)[C@H](CC(N)=O)NC(=O)[C@H](CC(=O)O)NC(=O)[C@@H]2CCCN2C1=O [SEQ ID NO: 156] (H-DCLGRMRKCIPDNDKCCRPNLVCSRTHKWCKYVF-NH2; disulfide 2-17, 9-23, 16-30)	–	IC50 (IonWorks Quattro, clamped to −110 mV, depolarized to −10 mV, 5 min after compound, n=2): 3630 nM
CC[C@H](C)[C@@H]1NC(=O)[C@@H]2CSSC[C@@H]3NC(=O)[C@H](C(C)C)NC(=O)[C@H](CC(C)C)NC(=O)[C@H](CC(N)=O)NC(=O)[C@@H]4CCCN4C(=O)[C@H](CCCNC(=N)N)NC(=O)[C@H](CSSC[C@H](NC(=O)[C@@H](N)CC(=O)O)C(=O)N[C@@H](CC(C)C)C(=O)N[C@@H](Cc4c[nH]c5ccccc45)C(=O)N[C@@H](Cc4ccccc4)C(=O)N[C@@H](CCSC)C(=O)N[C@@H](CCCNC(=N)N)C(=O)N[C@@H](CCCCN)C(=O)N2)NC(=O)[C@H](CSSC[C@@H](C(=O)N[C@@H](CCCCN)C(=O)N[C@@H](Cc2ccc(O)cc2)C(=O)N[C@H](C(=O)N[C@@H](Cc2ccccc2)C(N)=O)C(C)C)NC(=O)[C@H](Cc2c[nH]c4ccccc24)NC(=O)[C@H](CCCCN)NC(=O)[C@H](Cc2c[nH]cn2)NC(=O)[C@H]([C@@H](C)O)NC(=O)[C@H](CCCNC(=N)N)NC(=O)[C@H](CO)NC3=O)NC(=O)[C@H](CCCCN)NC(=O)[C@H](CC(=O)O)NC(=O)[C@H](CC(N)=O)NC(=O)[C@H](CC(=O)O)NC(=O)[C@@H]2CCCN2C1=O [SEQ ID NO: 169] (H-DCLWFMRKCIPDNDKCCRPNLVCSRTHKWCKYVF-NH2; disulfide 2-17, 9-23, 16-30)	50 nM	–
CC[C@H](C)[C@@H]1NC(=O)[C@@H]2CSSC[C@@H]3NC(=O)[C@H](C(C)C)NC(=O)[C@H](CC(C)C)NC(=O)[C@H](CC(N)=O)NC(=O)[C@@H]4CCCN4C(=O)[C@H](CCCNC(=N)N)NC(=O)[C@H](CSSC[C@H](NC(=O)[C@@H](N)CC(=O)O)C(=O)N[C@@H](CC(C)C)C(=O)NCC(=O)N[C@@H](Cc4ccccc4)C(=O)N[C@@H](CCSC)C(=O)N[C@@H](C)C(=O)N[C@@H](CCCCN)C(=O)N2)NC(=O)[C@H](CSSC[C@@H](C(=O)N[C@@H](CCCCN)C(=O)N[C@@H](Cc2ccc(O)cc2)C(=O)N[C@H](C(=O)N[C@@H](Cc2ccccc2)C(N)=O)C(C)C)NC(=O)[C@H](Cc2c[nH]c4ccccc24)NC(=O)[C@H](CCCCN)NC(=O)[C@H](Cc2c[nH]cn2)NC(=O)[C@H]([C@@H](C)O)NC(=O)[C@H](CCCNC(=N)N)NC(=O)[C@H](CO)NC3=O)NC(=O)[C@H](CCCCN)NC(=O)[C@H](CC(=O)O)NC(=O)[C@H](CC(N)=O)NC(=O)[C@H](CC(=O)O)NC(=O)[C@@H]2CCCN2C1=O [[Ala7]GpTx-1(1-34)] (H-DCLGFMAKCIPDNDKCCRPNLVCSRTHKWCKYVF-NH2; disulfide 2-17, 9-23, 16-30)	–	IC50 (IonWorks Quattro, use-dependent block, hNav1.7): 940 nM
CC[C@H](C)[C@@H]1NC(=O)[C@@H]2CSSC[C@@H]3NC(=O)[C@H](C(C)C)NC(=O)[C@H](CC(C)C)NC(=O)[C@H](CC(N)=O)NC(=O)[C@@H]4CCCN4C(=O)[C@H](CCCNC(=N)N)NC(=O)[C@H](CSSC[C@H](NC(=O)[C@@H](N)CC(=O)O)C(=O)N[C@@H](CC(C)C)C(=O)NCC(=O)N[C@@H](Cc4ccccc4)C(=O)N[C@@H](CCSC)C(=O)N[C@@H](CCCNC(=N)N)C(=O)N[C@@H](CCC(=O)O)C(=O)N2)NC(=O)[C@H](CSSC[C@@H](C(=O)N[C@@H](CCCCN)C(=O)N[C@@H](Cc2ccc(O)cc2)C(=O)N[C@H](C(=O)N[C@@H](Cc2ccccc2)C(N)=O)C(C)C)NC(=O)[C@H](Cc2c[nH]c4ccccc24)NC(=O)[C@H](CCCCN)NC(=O)[C@H](Cc2c[nH]cn2)NC(=O)[C@H]([C@@H](C)O)NC(=O)[C@H](CCCNC(=N)N)NC(=O)[C@H](CO)NC3=O)NC(=O)[C@H](CCCCN)NC(=O)[C@H](CC(=O)O)NC(=O)[C@H](CC(N)=O)NC(=O)[C@H](CC(=O)O)NC(=O)[C@@H]2CCCN2C1=O [[Glu8]GpTx-1(1-34)] (H-DCLGFMRECIPDNDKCCRPNLVCSRTHKWCKYVF-NH2; disulfide 2-17, 9-23, 16-30)	1700 nM	–
CC[C@H](C)[C@@H]1NC(=O)[C@@H]2CSSC[C@@H]3NC(=O)[C@H](C(C)C)NC(=O)[C@H](CC(C)C)NC(=O)[C@H](CC(N)=O)NC(=O)[C@@H]4CCCN4C(=O)[C@H](CCCNC(=N)N)NC(=O)[C@H](CSSC[C@H](NC(=O)[C@@H](N)CC(=O)O)C(=O)N[C@@H](CC(C)C)C(=O)NCC(=O)N[C@@H](Cc4ccccc4)C(=O)N[C@@H](CCSC)C(=O)N[C@@H](CCCNC(=N)N)C(=O)N[C@@H](CCCCN)C(=O)N2)NC(=O)[C@H](CSSC[C@@H](C(=O)N[C@@H](CCCCN)C(=O)N[C@@H](Cc2ccc(O)cc2)C(=O)N[C@H](C(=O)N[C@@H](Cc2ccccc2)C(N)=O)C(C)C)NC(=O)[C@H](Cc2c[nH]c4ccccc24)NC(=O)[C@H](CCCCN)NC(=O)[C@H](Cc2c[nH]cn2)NC(=O)[C@H]([C@@H](C)O)NC(=O)[C@H](CCCNC(=N)N)NC(=O)[C@H](CO)NC3=O)NC(=O)[C@H](CCCCN)NC(=O)[C@H](CC(=O)O)NC(=O)[C@H](CC(N)=O)NC(=O)[C@H](C)NC(=O)[C@@H]2CCCN2C1=O [compound 4] (H-DCLGFMRKCIPANDKCCRPNLVCSRTHKWCKYVF-NH2; disulfide 2-17, 9-23, 16-30)	–	IC50 (IonWorks Quattro, Use): 120 nM
CC[C@H](C)[C@@H]1NC(=O)[C@@H]2CSSC[C@@H]3NC(=O)[C@H](C(C)C)NC(=O)[C@H](CC(C)C)NC(=O)[C@H](C)NC(=O)[C@@H]4CCCN4C(=O)[C@H](CCCNC(=N)N)NC(=O)[C@H](CSSC[C@H](NC(=O)[C@@H](N)CC(=O)O)C(=O)N[C@@H](CC(C)C)C(=O)NCC(=O)N[C@@H](Cc4ccccc4)C(=O)N[C@@H](CCSC)C(=O)N[C@@H](CCCNC(=N)N)C(=O)N[C@@H](CCCCN)C(=O)N2)NC(=O)[C@H](CSSC[C@@H](C(=O)N[C@@H](CCCCN)C(=O)N[C@@H](Cc2ccc(O)cc2)C(=O)N[C@H](C(=O)N[C@@H](Cc2ccccc2)C(N)=O)C(C)C)NC(=O)[C@H](Cc2c[nH]c4ccccc24)NC(=O)[C@H](CCCCN)NC(=O)[C@H](Cc2c[nH]cn2)NC(=O)[C@H]([C@@H](C)O)NC(=O)[C@H](CCCNC(=N)N)NC(=O)[C@H](CO)NC3=O)NC(=O)[C@H](CCCCN)NC(=O)[C@H](CC(=O)O)NC(=O)[C@H](CC(N)=O)NC(=O)[C@H](CC(=O)O)NC(=O)[C@@H]2CCCN2C1=O [compound 7] (H-DCLGFMRKCIPDNDKCCRPALVCSRTHKWCKYVF-NH2; disulfide 2-17, 9-23, 16-30)	690 nM	–
